Measured values reported in patent US20260191835A1, “COMBINATIONS COMPRISING A MENIN-MLL INHIBITOR AND AT LEAST ONE OTHER THERAPEUTIC AGENT” (JANSSEN PHARMACEUTICA NV, priority 2022, published 2026).

Key:
MOLM14 cells = assay: Proliferation assay (spheroid assay), MOLM14; assay type: cell-based; conditions: Homo sapiens, MOLM-14, 192 h, 8 days; read-out: spheroid assay_MOLM14 IC50
Method: (§1) The anti-proliferative effect of menin/MLL protein/protein interaction inhibitor test compounds was assessed in human leukemia cell lines. The cell line MOLM14 harbors a MLL translocation and expresses the MLL fusion protein MLL-AF9, respectively, as well as the wildtype protein from the second allele. OCI-AML3 cells that carry the NPM1c gene mutation were also tested. […] KO-52 was used as a control cell line containing two MLL (KMT2A) wildtype alleles in order to exclude compounds that display general cytotoxic effects.
(§2) MOLM14 cells were cultured in RPMI-1640 (Sigma Aldrich) supplemented with 10% heat-inactivated fetal bovine serum (HyClone), 2 mM L-glutamine (Sigma Aldrich) and 50 μg/ml gentamycin (Gibco). KO-52 and OCI-AML3 cell lines were propagated in alpha-MEM (Sigma Aldrich) supplemented with 20% heat-inactivated fetal bovine serum (HyClone), 2 mM L-glutamine (Sigma Aldrich) and 50 µg/ml gentamycin (Gibco).
In order to assess the anti-proliferative effects, 200 MOLM14 cells, […] or 300 KO-52 cells were seeded in 200 μl media per well in 96-well round bottom, ultra-low attachment plates (Costar, catalogue number 7007). Cell seeding numbers were chosen based on growth curves to ensure linear growth throughout the experiment. Test compounds were added at different concentrations and the DMSO content was normalized to 0.3%. Cells were incubated for 8 days at 37° C. and 5% CO2. Spheroid like growth was measured in real-time by live-cell imaging (IncuCyteZOOM, Essenbio, 4× objective) acquiring images at day 8. Confluence (%) as a measure of spheroid size was determined using an integrated analysis tool.
In order to determine the effect of the test compounds over time, the confluence in each well as a measure of spheroid size, was calculated. Confluence of the highest dose of a reference compound was used as baseline for the LC (Low control) and the confluence of DMSO treated cells was used as 0% cytotoxicity (High Control, HC).
Absolute IC50 values were calculated as percent change in confluence as follows: • LC=Low Control: cells treated with e.g. […] of the cytotoxic agent staurosporin, or e.g. cells treated with a high concentration of an alternative reference compound • HC=High Control: Mean confluence (%) (DMSO treated cells)
GraphPad Prism (version 7.00) was used to calculate the IC50. Dose-response equation was used for the plot of % Effect vs Log 10 compound concentration with a variable slope and fixing the maximum to 100% and the minimum to 0%.

KO-52 cells = assay: Proliferation assay (spheroid assay), KO-52 control cell line; assay type: cell-based; conditions: Homo sapiens, 192 h, 8 days; MLL wildtype control cell line; read-out: spheroid assay_KO-52 IC50
Method: as §1, §2
In order to assess the anti-proliferative effects, 200 MOLM14 cells, 200° C. […] Spheroid like growth was measured in real-time by live-cell imaging (IncuCyteZOOM, Essenbio, 4× objective) acquiring images at day 8. Confluence (%) as a measure of spheroid size was determined using an integrated analysis tool.
In order to determine the effect of the test compounds over time, the confluence in each well as a measure of spheroid size, was calculated. […]

MEIS1 mRNA expression = MEIS1 mRNA expression assay (Quantigene Singleplex) in MOLM14; assay type: cell-based; conditions: Homo sapiens, MOLM-14, 48 h, MOLM14 cells, 48 hours with compound
Method: 2b) MEIS1 mRNA Expression Assay
MEIS1 mRNA expression upon treatment of compound was examined by Quantigene Singleplex assay (Thermo Fisher Scientific). This technology allows for direct quantification of mRNA targets using probes hybridizing to defined target sequences of interest and the signal is detected using a Multimode plate reader Envision (PerkinElmer). The MOLM14 cell line was used for this experiment. Cells were plated in 96-well plates at 3,750 cells/well in the presence of increasing concentrations of compounds. After incubation of 48 hours with compounds, cells were lysed in lysis buffer and incubated for 45 minutes at 55° C. Cell lysates were mixed with human MEIS1 specific capture probe or human RPL28 (Ribosomal Protein L28) specific probe as a normalization control, as well as blocking probes. Cell lysates were then transferred to the custom assay hybridization plate (Thermo Fisher Scientific) and incubated for 18 to 22 hours at 55° C. Subsequently, plates were washed to remove unbound materials followed by sequential addition of preamplifiers, amplifiers, and label probe. Signals (=gene counts) were measured with a Multimode plate reader Envision. IC50s were calculated by dose-response modelling using appropriate software. For all non-housekeeper genes response equal counts corrected for background and relative expression. For each sample, each test gene signal (background subtracted) was divided by the normalization gene signal (RPL28: background subtracted). Fold changes were calculated by dividing the normalized values for the treated samples by the normalized values for the DMSO treated sample. Fold changes of each target gene were used for the calculation of IC50s.

MOLM-13 tumors = assay: Efficacy (survival) in disseminated MOLM-13 (KMT2A-rearranged) model in NSG mice; assay type: in vivo; conditions: NSG mice bearing established MOLM-13 tumors, vs vehicle; Azacitidine 2 mg/kg ip QD × 7; Compound 51 2 mg/kg po QD × 28; n = 10
Method: 4) Efficacy of Menin-MLL Inhibitor in Combination with Azacitidine in MOLM-13 (KMT2A-Rearranged) Model in NSG Mice
Compound 51 was formulated in purified pyrogen-free deionized water, pH 4.0 and prepared to reach a total volume of 8 mL/kg. Doses were adjusted by individual body weight each day. Working stocks of Compound 51 were prepared once per week for each study and stored at 25° C.
Female NSG (NOD.Cg-Prkdc^scid Il2rg^tm1Wjl/SzJ) mice were used when they were approximately 6 to 8 weeks of age and weighed approximately 25 g. All animals could acclimate and recover from any shipping-related stress for a minimum of 7 days prior to experimental use. […]
Animals were monitored daily for clinical signs related to either compound toxicity or tumor burden (i.e., hind limb paralysis, lethargy, etc.).
For survival assessment, results were plotted as the percentage survival against days post tumor implant. […] Median survival was determined utilizing Kaplan-Meier survival analysis. The percent increased life span (ILS) was calculated as: ((median survival day of treated group−median survival day of control group)/median survival day of control group)×100. […]
Survival and body weight data were graphically represented utilizing Prism (Version 9). Statistical significance for body weights was evaluated as described above. […]

Structure (SMILES): CC(=O)N1CCC(CN2CCC(Cc3cn(-c4ccc(F)cc4C(=O)N(C)C(C)C)c4cncc(C)c34)C2)CC1 (single isomer, unassigned) [Compound 50]
- IC50 (MOLM14 cells): 39 nM
- IC50 (KO-52 cells): 2300 nM
- IC50 (MEIS1 mRNA expression): 89 nM

Structure (SMILES): Nc1ncn([C@@H]2O[C@H](CO)[C@@H](O)[C@H]2O)c(=O)n1 [Azacitidine, azacitidine, reference compound]
- % ILS (increased life span) (MOLM-13 tumors): *37%
